Reference: patent US20070128217A1 (priority 2003, published 2007)

Tests used:
[1] = system: rabbit serum obtained by immunizing a rabbit with the SARS-CoV strain Frankfurt 1; format: binding; design: Binding of a rabbit serum to linear peptides / Binding of a rabbit serum to looped peptides / Rabbit serum linear peptides / Rabbit serum looped peptides / Binding of a rabbit serum to linear peptides of protein N of SARS-CoV Urbani (Rabbit serum linear peptides) / Binding of a rabbit serum to looped/cyclic peptides of protein N of SARS-CoV Urbani (Rabbit serum looped peptides): unit not given here
[2] = system: control sera (pooled serum of ten healthy LUMC hospital workers; commercial negative donor pooled serum from the Dutch bloodbank); format: binding, human; design: Binding of Control serum LUMC to linear peptides / Binding of Control serum Blood-bank to linear peptides / Binding of Control serum LUMC to looped peptides / Binding of Control Serum Blood-Bank to Looped peptides / Binding of Control serum LUMC to linear peptides of the protein M of SARS-CoV Urbani / Binding of Control serum Blood-bank to linear peptides of the protein M of SARS-CoV Urbani / Binding of Control serum LUMC to looped peptides of the protein M of SARS-CoV Urbani / Binding of Control Serum Blood-Bank to Looped peptides of the protein M of SARS-CoV Urbani: unit not given here
[3] = system: antibodies in sera from SARS patients (sera 1a, 1b, 2, 6, 37, 62, London, SARS-yellow, SARS-green); format: binding, human; design: Binding of serum 6 to linear peptides of protein X1 of SARS-CoV Urbani / Binding of serum 37 to linear peptides of protein X1 of SARS-CoV Urbani / Binding of serum 6 to looped/cyclic peptide (PEPSCAN-ELISA) / Binding of serum 37 to looped/cyclic peptide (PEPSCAN-ELISA) / Binding of serum 37 to looped/cyclic peptides of protein X1 of SARS-CoV Urbani / Binding of serum 6 to linear peptides of protein X2 / Binding of serum 37 to linear peptides of protein X2 / Binding of serum 37 to looped/cyclic peptides of protein X2 of SARS-CoV Urbani / Binding of serum 6 to linear peptides of protein M of SARS-CoV Urbani / Binding of serum 37 to linear peptides of protein M of SARS-CoV Urbani / Binding of serum 6 to looped/cyclic peptides of protein M of SARS-CoV Urbani / Binding of serum 37 to looped/cyclic peptides of protein M of SARS-CoV Urbani / Binding of serum 6 to linear peptides of protein X3 of SARS-CoV Urbani / Binding of serum 37 to linear peptides of protein X3 of SARS-CoV Urbani / Binding of serum 37 to looped/cyclic peptides of protein X3 of SARS-CoV Urbani / Binding of serum 6 to linear peptides of protein X4 of SARS-CoV Urbani / Binding of serum 37 to linear peptides of protein X4 of SARS-CoV Urbani / Binding of serum 37 to looped/cyclic peptides of protein X4 of SARS-CoV Urbani / Binding of serum 6 to linear peptides of protein X5 of SARS-CoV Urbani / Binding of serum 37 to linear peptides of protein X5 of SARS-CoV Urbani / Binding of serum 37 to looped/cyclic peptides of protein X5 of SARS-CoV Urbani / Binding of serum 6 to linear peptides of protein N of SARS-CoV Urbani / Binding of serum 37 to linear peptides of protein N of SARS-CoV Urbani / Binding of serum 6 to linear peptide (PEPSCAN-ELISA) / Binding of serum 1a to looped/cyclic peptides of protein N of SARS-CoV Urbani / Binding of serum 1b to looped/cyclic peptides of protein N of SARS-CoV Urbani / Binding of serum 2 to looped/cyclic peptides of protein N of SARS-CoV Urbani / Binding of serum 6 to looped/cyclic peptides of protein N of SARS-CoV Urbani / Binding of serum 37 to looped/cyclic peptides of protein N of SARS-CoV Urbani / Binding of serum 62 to looped/cyclic peptides of protein N of SARS-CoV Urbani / Binding of serum London to looped/cyclic peptides of protein N of SARS-CoV Urbani / Binding of serum SARS-green to looped/cyclic peptides of protein N of SARS-CoV Urbani: unit not given here

Sequence: ACADGTRHTYQLRAR
- Recognition of the peptide by the rabbit serum [1]: recognized
- Binding of Control Serum Blood-Bank to Looped peptides [2]: 0.5
- Binding of Control serum Blood-bank to linear peptides [2]: 0.6
- Binding of Control serum LUMC to linear peptides [2]: 0.6
- Binding of Control serum LUMC to looped peptides [2]: 0.5
- Binding of serum 1a to linear peptides of protein X4 of SARS-CoV Urbani [3]: 0.7
- Binding of serum 1a to looped/cyclic peptides of protein X4 of SARS-CoV Urbani [3]: 0.7
- Binding of serum 1b to linear peptides of protein X4 of SARS-CoV Urbani [3]: 0.6
- Binding of serum 1b to looped/cyclic peptides of protein X4 of SARS-CoV Urbani [3]: 0.3
- Binding of serum 2 to linear peptides of protein X4 of SARS-CoV Urbani [3]: 0.5
- Binding of serum 2 to looped/cyclic peptides of protein X4 of SARS-CoV Urbani [3]: 0.6
- Binding of serum 6 to linear peptides of protein X4 of SARS-CoV Urbani [3]: 0.6
- Binding of serum 6 to looped/cyclic peptides of protein X4 of SARS-CoV Urbani [3]: 0.6
- Binding of serum 37 to linear peptides of protein X4 of SARS-CoV Urbani [3]: 0.7
- Binding of serum 37 to looped/cyclic peptides of protein X4 of SARS-CoV Urbani [3]: 0.7
- Binding of serum 62 to linear peptides of protein X4 of SARS-CoV Urbani [3]: 0.8
- Binding of serum 62 to looped/cyclic peptides of protein X4 of SARS-CoV Urbani [3]: 0.6
- Binding of serum London to linear peptides of protein X4 of SARS-CoV Urbani [3]: 0.7
- Binding of serum London to looped/cyclic peptides of protein X4 of SARS-CoV Urbani [3]: 0.3
- Binding of serum SARS-green to linear peptides of protein X4 of SARS-CoV Urbani [3]: 0.7
- Binding of serum SARS-green to looped/cyclic peptides of protein X4 of SARS-CoV Urbani [3]: 0.5
- Binding of serum SARS-yellow to linear peptides of protein X4 of SARS-CoV Urbani [3]: 0.5
- Binding of serum SARS-yellow to looped/cyclic peptides of protein X4 of SARS-CoV Urbani [3]: 0.5

Sequence: ACFVLAAVYRINWVT
- Rabbit serum linear peptides [1]: 0.4
- Rabbit serum looped peptides [1]: 0.3
- Binding of Control Serum Blood-Bank to Looped peptides of the protein M of SARS-CoV Urbani [2]: 0.7
- Binding of Control serum Blood-bank to linear peptides of the protein M of SARS-CoV Urbani [2]: 0.7
- Binding of Control serum LUMC to linear peptides of the protein M of SARS-CoV Urbani [2]: 0.3
- Binding of Control serum LUMC to looped peptides of the protein M of SARS-CoV Urbani [2]: 0.7
- Binding of serum 1a to linear peptides of protein M of SARS-CoV Urbani [3]: 0.7
- Binding of serum 1a to looped/cyclic peptides of protein M of SARS-CoV Urbani [3]: 0.7
- Binding of serum 1b to linear peptides of protein M of SARS-CoV Urbani [3]: 0.6
- Binding of serum 1b to looped/cyclic peptides of protein M of SARS-CoV Urbani [3]: 0.7
- Binding of serum 2 to linear peptides of protein M of SARS-CoV Urbani [3]: 0.5
- Binding of serum 2 to looped/cyclic peptides of protein M of SARS-CoV Urbani [3]: 0.5
- Binding of serum 6 to linear peptides of protein M of SARS-CoV Urbani [3]: 0.3
- Binding of serum 6 to looped/cyclic peptides of protein M of SARS-CoV Urbani [3]: 1.0
- Binding of serum 37 to linear peptides of protein M of SARS-CoV Urbani [3]: 0.8
- Binding of serum 37 to looped/cyclic peptides of protein M of SARS-CoV Urbani [3]: 0.7
- Binding of serum 62 to linear peptides of protein M of SARS-CoV Urbani [3]: 0.9
- Binding of serum 62 to looped/cyclic peptides of protein M of SARS-CoV Urbani [3]: 0.6
- Binding of serum London to linear peptides of protein M of SARS-CoV Urbani [3]: 0.3
- Binding of serum London to looped/cyclic peptides of protein M of SARS-CoV Urbani [3]: 0.3
- Binding of serum SARS-green to linear peptides of protein M of SARS-CoV Urbani [3]: 0.3
- Binding of serum SARS-green to looped/cyclic peptides of protein M of SARS-CoV Urbani [3]: 0.3
- Binding of serum SARS-yellow to linear peptides of protein M of SARS-CoV Urbani [3]: 0.0
- Binding of serum SARS-yellow to looped/cyclic peptides of protein M of SARS-CoV Urbani [3]: 0.5

Sequence: ACLCKHKKVSTNLCT
- Binding of a rabbit serum to linear peptides [1]: 0.3
- Binding of a rabbit serum to looped peptides [1]: 0.3
- Binding of Control Serum Blood-Bank to Looped peptides [2]: 0.2
- Binding of Control serum Blood-bank to linear peptides [2]: 0.9
- Binding of Control serum LUMC to linear peptides [2]: 0.8
- Binding of Control serum LUMC to looped peptides [2]: 0.3
- Binding of serum 1a to looped/cyclic peptides of protein X2 of SARS-CoV Urbani [3]: 0.3
- Binding of serum 1b to looped/cyclic peptides of protein X2 of SARS-CoV Urbani [3]: 0.3
- Binding of serum 2 to looped/cyclic peptides of protein X2 of SARS-CoV Urbani [3]: 0.2
- Binding of serum 6 to looped/cyclic peptides of protein X2 of SARS-CoV Urbani [3]: 0.2
- Binding of serum 37 to looped/cyclic peptides of protein X2 of SARS-CoV Urbani [3]: 0.3
- Binding of serum 62 to looped/cyclic peptides of protein X2 of SARS-CoV Urbani [3]: 0.4
- Binding of serum London to looped/cyclic peptides of protein X2 of SARS-CoV Urbani [3]: 0.2
- Binding of serum SARS-green to looped/cyclic peptides of protein X2 of SARS-CoV Urbani [3]: 0.3
- Binding of serum SARS-yellow to looped/cyclic peptides of protein X2 of SARS-CoV Urbani [3]: 0.3
- Recognition of the peptide by sera of SARS-CoV infected individuals, and form (linear, looped/cyclic) in which it is recognized [3]: recognized in linear form
